From US5525599A, “7-substituted-amino-3-substituted-3-cephem-4-carboxylic acids” (Eli Lilly and Company, priority 1993, dated 1996)
≈ marks a conversion by molar mass, not a printed value.

Legend:
other Gram(-) bacteria = assay: In vitro activity (MIC), agar dilution method; assay type: cell-based
Staph. aureus (V41) = assay: In vitro activity (MIC), agar dilution method; assay type: cell-based; settings: Staphylococcus aureus
Procedure: (§1) Cephalosporins 9a-o were assayed against a broad array of Gram-positive and Gram-negative bacteria in Mueller-Hinton agar by the 2-fold serial dilution method, (Kirst, H. A.; J. Antibiot. 1982, 35, 1675).
(§2) Test compounds were diluted to an appropriate range of concentrations in 0.1M phosphate buffer (pH 7), incorporated into Mueller-Hinton agar (difco) supplemented with 1% Bacto-Supplement C (Difco) at 50° C. and allowed to solidify in petri dishes. Fresh overnight cultures of test bacteria were diluted to approximately 1×10^4 cells/mL aand applied in […] to the surface of the agar plates. The inoculated plates were incubated overnight at 35° C. in ambient air. MIC endpoints were recorded as the lowest antibiotic concentrations that inhibited the development of visible bacterial growth on the plates.

Strept. pyogenes (C203) = assay: In vitro activity (MIC), agar dilution method; assay type: cell-based; settings: Streptococcus pyogenes
Procedure: as §1, §2

H. influenzae (C.L.) = assay: In vitro activity (MIC), agar dilution method; assay type: cell-based; settings: Haemophilus influenzae
Procedure: as §1, §2

Staph. aureus (X1.1) = assay: In vitro activity (MIC), agar dilution method; assay type: cell-based; settings: Staphylococcus aureus
Procedure: as §1, §2

K. pneumonia (KAE) = assay: In vitro activity (MIC), agar dilution method; assay type: cell-based; settings: Klebsiella pneumoniae
Procedure: as §1, §2

Staph. epiderm. (222) = assay: In vitro activity (MIC), agar dilution method; assay type: cell-based; settings: Staphylococcus epidermidis
Procedure: as §1, §2

Staph. aureus (S13E) = assay: In vitro activity (MIC), agar dilution method; assay type: cell-based; settings: Staphylococcus aureus
Procedure: as §1, §2

Enter. faecalis (2041) = assay: In vitro activity (MIC), agar dilution method; assay type: cell-based; settings: Enterococcus faecalis
Procedure: as §1, §2

Enter. faecium (X66) = assay: In vitro activity (MIC), agar dilution method; assay type: cell-based; settings: Enterococcus faecium
Procedure: as §1, §2

H. influenzae (76) = assay: In vitro activity (MIC), agar dilution method; assay type: cell-based; settings: Haemophilus influenzae
Procedure: as §1, §2

Staph. aureus (X400) = assay: In vitro activity (MIC), agar dilution method; assay type: cell-based; settings: Staphylococcus aureus
Procedure: as §1, §2

E. coli (N10) = assay: In vitro activity (MIC), agar dilution method; assay type: cell-based; settings: Escherichia coli
Procedure: as §1, §2

E. coli (TEM) = assay: In vitro activity (MIC), agar dilution method; assay type: cell-based; settings: Escherichia coli
Procedure: as §1, §2

K. pneumonia (X68) = assay: In vitro activity (MIC), agar dilution method; assay type: cell-based; settings: Klebsiella pneumoniae
Procedure: as §1, §2

E. coli (EC14) = assay: In vitro activity (MIC), agar dilution method; assay type: cell-based; settings: Escherichia coli
Procedure: as §1, §2

K. pneumonia (X26) = assay: In vitro activity (MIC), agar dilution method; assay type: cell-based; settings: Klebsiella pneumoniae
Procedure: as §1, §2

Gram-positive bacteria = settings: in words; background statement; cited from earlier work

CN[C@H](CC(C)C)C(=O)N[C@H]1C(=O)N[C@@H](CC(N)=O)C(=O)N[C@H]2C(=O)N[C@H]3C(=O)N[C@H](C(=O)N[C@H](C(=O)O)c4cc(O)cc(O)c4-c4cc3ccc4O)[C@H](O)c3ccc(c(Cl)c3)Oc3cc2cc(c3O[C@@H]2O[C@H](CO)[C@@H](O)[C@H](O)[C@H]2O[C@H]2C[C@](C)(N)[C@H](O)[C@H](C)O2)Oc2ccc(cc2Cl)[C@H]1O [Vanc, Vancomycin, reference compound]
MIC (other Gram(-) bacteria): 128 µg/mL (≈ 88.3 µM)
MIC (Staph. aureus (V41)): 0.5 µg/mL (≈ 0.345 µM)
MIC (Strept. pyogenes (C203)): 0.5 µg/mL (≈ 0.345 µM)
MIC (H. influenzae (C.L.)): 64 µg/mL (≈ 44.2 µM)
MIC (Staph. aureus (X1.1)): 0.5 µg/mL (≈ 0.345 µM)
MIC (K. pneumonia (KAE)): 128 µg/mL (≈ 88.3 µM)
MIC (Staph. epiderm. (222)): 0.5 µg/mL (≈ 0.345 µM)
MIC (Staph. aureus (S13E)): 0.5 µg/mL (≈ 0.345 µM)
MIC (Enter. faecalis (2041)): 2 µg/mL (≈ 1.38 µM)
MIC (Enter. faecium (X66)): 0.5 µg/mL (≈ 0.345 µM)
MIC (H. influenzae (76)): 128 µg/mL (≈ 88.3 µM)
MIC (Staph. aureus (X400)): 0.5 µg/mL (≈ 0.345 µM)
MIC (E. coli (N10)): 128 µg/mL (≈ 88.3 µM)
MIC (E. coli (TEM)): 128 µg/mL (≈ 88.3 µM)
MIC (K. pneumonia (X68)): 128 µg/mL (≈ 88.3 µM)
MIC (E. coli (EC14)): 128 µg/mL (≈ 88.3 µM)
MIC (K. pneumonia (X26)): 128 µg/mL (≈ 88.3 µM)
activity against Gram-positive bacteria including methicillin-resistant staphylococci (Gram-positive bacteria): potent activity only against the Gram-positive bacteria including methicillin-resistant staphylococci
